{"source": "the supplement of paper PMC11208160", "data": [{"assay": "recombinant UMI read abundance after kanamycin selection (control-corrected) (log10(CPM+1)); higher = more efficient recombination; extreme values may be limits of the assay; sequences stand for … in AGTGCAGAGAAAATCGGCCAGTTTTCTCTGCCTGCAGTCCGCATGCCGTGGGACCCCTTGGGTTCTAACCTGTTGCCTAGATTTATGCAGCGGACTGCCTTTCTCCCAAAGTGATAAACCGG…AGGTTGGTTTCACT; site = the 11-nt donor", "outline": "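Pooled Escherichia coli screen of donor and donor-binding-loop pairs for the IS621 bridge recombinase. Each pair sits with a 12-nt UMI on a plasmid carrying a promoterless kanamycin gene. The library was co-electroporated with a target plasmid encoding a fixed target and T7-inducible recombinase, then plated with IPTG (0.07 mM) plus kanamycin, or unselected, each in two replicates. Recombinant UMIs were PCR-amplified across the donor–target junction and sequenced. Counts became CPM, averaged over replicates, scaled by control-derived factors and reported as log10(CPM+1).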", "values": [{"sequence": "AGGAGTACATGGACCGGTTTTCCCGGTAATCCGTATTTGAC (site AGGACTACTGT)", "recombinant UMI read abundance (log10)": 0.225}, {"sequence": "AGGAGTACATGGACCGGTTTTCCCGGTAATCCGTATTTGAC (site AGGAGTACTGT)", "recombinant UMI read abundance (log10)": 2.08}, {"sequence": "AGGAGTACATGGACCGGTTTTCCCGGTAATCCGTATTTGAC (site AGGATTACTGT)", "recombinant UMI read abundance (log10)": 0.00638}, {"sequence": "AGGAGTACATGGACCGGTTTTCCCGGTAATCCGTATTTGTC (site AGGAGTACTGA)", "recombinant UMI read abundance (log10)": 2.17}, {"sequence": "AGGAGTCCATGGACCGGTTTTCCCGGTAATCCGTATTTGAA (site AGGAGTCCTTT)", "recombinant UMI read abundance (log10)": 1.07}, {"sequence": "AGGATAACATGGACCGGTTTTCCCGGTAATCCGTATTTGGC (site AGGATAACTGC)", "recombinant UMI read abundance (log10)": 2.73}, {"sequence": "AGGATGACATGGACCGGTTTTCCCGGTAATCCGTATTTGTA (site AGGAAGACTTG)", "recombinant UMI read abundance (log10)": 0}, {"sequence": "AGGATGACATGGACCGGTTTTCCCGGTAATCCGTATTTGTA (site AGGATGACTTA)", "recombinant UMI read abundance (log10)": 2.6}, {"sequence": "AGGATGGCATGGACCGGTTTTCCCGGTAATCCGTATTTGGT (site AGGATGGCTAC)", "recombinant UMI read abundance (log10)": 1.79}, {"sequence": "AGGATTCCATGGACCGGTTTTCCCGGTAATCCGTATTTGTT (site AGGATTCCTAA)", "recombinant UMI read abundance (log10)": 0.226}, {"sequence": "AGGATTCCATGGACCGGTTTTCCCGGTAATCCGTATTTGTT (site CGGAATCCTAA)", "recombinant UMI read abundance (log10)": 0.0087}, {"sequence": "AGGCAACCATGGACCGGTTTTCCCGGTAATCCGTATTTGGG (site AGGCAACCTCC)", "recombinant UMI read abundance (log10)": 0.112}, {"sequence": "AGGCCGACATGGACCGGTTTTCCCGGTAATCCGTATTTGCA (site AGGAAGACTTG)", "recombinant UMI read abundance (log10)": 0}, {"sequence": "AGGCCGACATGGACCGGTTTTCCCGGTAATCCGTATTTGCA (site AGGCCGACTTG)", "recombinant UMI read abundance (log10)": 1.81}, {"sequence": "AGGCCTGCATGGACCGGTTTTCCCGGTAATCCGTATTTGAA (site AGGCCTGCTTT)", "recombinant UMI read abundance (log10)": 0.996}, {"sequence": "AGGCTTCCATGGACCGGTTTTCCCGGTAATCCGTATTTGCG (site AGGCTTCCTCG)", "recombinant UMI read abundance (log10)": 0.745}, {"sequence": "AGGGAGACATGGACCGGTTTTCCCGGTAATCCGTATTTGCA (site AGGAAGACTTG)", "recombinant UMI read abundance (log10)": 0.796}, {"sequence": "AGGGAGACATGGACCGGTTTTCCCGGTAATCCGTATTTGCA (site AGGCAGACTTG)", "recombinant UMI read abundance (log10)": 0.473}, {"sequence": "AGGGAGACATGGACCGGTTTTCCCGGTAATCCGTATTTGCA (site AGGGAGACTTG)", "recombinant UMI read abundance (log10)": 2.5}, {"sequence": "AGGGAGACATGGACCGGTTTTCCCGGTAATCCGTATTTGCA (site AGGTAGACTTG)", "recombinant UMI read abundance (log10)": 0.162}, {"sequence": "AGGGATCCATGGACCGGTTTTCCCGGTAATCCGTATTTGTT (site AGGGATCCTAA)", "recombinant UMI read abundance (log10)": 0.662}, {"sequence": "AGGGATCCATGGACCGGTTTTCCCGGTAATCCGTATTTGTT (site CGGAATCCTAA)", "recombinant UMI read abundance (log10)": 0}, {"sequence": "AGGGCTACATGGACCGGTTTTCCCGGTAATCCGTATTTGCG (site AGGGCTACTCG)", "recombinant UMI read abundance (log10)": 1.42}, {"sequence": "AGGGTGACATGGACCGGTTTTCCCGGTAATCCGTATTTGCA (site AGGAAGACTTG)", "recombinant UMI read abundance (log10)": 0.666}, {"sequence": "AGGGTGACATGGACCGGTTTTCCCGGTAATCCGTATTTGCA (site AGGGTGACTTG)", "recombinant UMI read abundance (log10)": 2.63}, {"sequence": "AGGTACCCATGGACCGGTTTTCCCGGTAATCCGTATTTGTG (site AGGTACCCTCA)", "recombinant UMI read abundance (log10)": 0.0796}, {"sequence": "AGGTACCCATGGACCGGTTTTCCCGGTAATCCGTATTTGTG (site AGGTCCCCTCA)", "recombinant UMI read abundance (log10)": 0.0158}, {"sequence": "AGGTACCCATGGACCGGTTTTCCCGGTAATCCGTATTTGTG (site AGGTGCCCTCA)", "recombinant UMI read abundance (log10)": 0.0127}, {"sequence": "AGGTACCCATGGACCGGTTTTCCCGGTAATCCGTATTTGTG (site AGGTTCCCTCA)", "recombinant UMI read abundance (log10)": 0.0248}, {"sequence": "AGGTACGCATGGACCGGTTTTCCCGGTAATCCGTATTTGAG (site AGGTACGCTCT)", "recombinant UMI read abundance (log10)": 1.72}, {"sequence": "AGGTAGACATGGACCGGTTTTCCCGGTAATCCGTATTTGCA (site AGGAAGACTTG)", "recombinant UMI read abundance (log10)": 1.23}, {"sequence": "AGGTAGACATGGACCGGTTTTCCCGGTAATCCGTATTTGCA (site AGGCAGACTTG)", "recombinant UMI read abundance (log10)": 2.47}, {"sequence": "AGGTAGACATGGACCGGTTTTCCCGGTAATCCGTATTTGCA (site AGGGAGACTTG)", "recombinant UMI read abundance (log10)": 0.688}, {"sequence": "AGGTAGACATGGACCGGTTTTCCCGGTAATCCGTATTTGCA (site AGGTAGACTTG)", "recombinant UMI read abundance (log10)": 2.88}, {"sequence": "AGGTAGCCATGGACCGGTTTTCCCGGTAATCCGTATTTGCA (site AGGAAGACTTG)", "recombinant UMI read abundance (log10)": 0}, {"sequence": "AGGTAGCCATGGACCGGTTTTCCCGGTAATCCGTATTTGCA (site AGGTAGCCTTG)", "recombinant UMI read abundance (log10)": 0}, {"sequence": "AGGTAGCCATGGACCGGTTTTCCCGGTAATCCGTATTTGTA (site AGGTAGCCTTA)", "recombinant UMI read abundance (log10)": 0.215}]}]}
